In patent US7803407B2 (priority 1997, dated 2010):

Legend:
Assay in all cases: Laboratory disinfection efficacy test (suspension, pour plate count)
Type in all cases: cell-based
[1] = system: Staphylococcus aureus strain ATCC 6538; conditions: 15 seconds (ethanol trials) or 1 minute to 30 minutes
Procedure: (§1) The inoculum level for each of the test microorganisms were established in a similar manner. Test strains were grown individually at 35° C. for 24 hr. The cells were harvested by centrifugation at 10,000×g for 10 minutes and washed twice with Butterfield's Phosphate Buffer (BPB of pH 7.2). The cells were resuspended in the Butterfield's Phosphate Buffer to obtain a cell suspension of approximately 1.0×10^8 CFU/mL for each microorganism (target inoculum levels were approx. 10^6 in the final test solution).
(§2) The test microorganisms considered were tested at uniform sampling intervals, The sampling intervals selected were (a) 15 seconds (ethanol trials only), (b) 1 minute, (c) 5 minutes, (d) 10 minutes and (e) 30 minutes.
(§3) Five compounds were tested against the test microorganisms.
(§4) The test microorganisms were tested in accordance with the following test procedures. Duplicate trials were conducted for each test variable. Ninety nine volumes of the test solutions in 250 mL Erlenmeyer flasks were prepared from sterilized deionized water. The solutions were inoculated separately with one mL of 24 hour culture from each of the test strains to yield a flask inoculum level of approximately 1.0×10^6 CFU/mL.
(§5) Solutions were mixed well and kept under constant agitation. Samples of 1.0 mL were removed at the above specified time intervals and placed into 9.0 mL Neutralization Broth media (Difco) to yield an initial dilution of 1:10. All samples were serially diluted in the Butterfield's Phosphate Buffer solution (BPB) and plated onto Tryptic Soy Agar (TSA) in duplicate using the pour plate technique. Percent reductions were calculated for each test solution against each test strain.
(§6) For all tests which utilized either copper or silver ions, concentrated solutions were prepared 24 hours prior to the beginning of the study. Solutions were filtered and determinations for ion content were made. From these stock solutions (copper ion concentration as measured by ICAP and silver ion concentration as measured by Atomic Absorption analysis), final working solutions were made. The target ion concentration for both copper and silver was 5.0 mg/L.

[2] = system: Salmonella cholerasuis strain ATCC 10708
Procedure: as §1, §2, §3, §4, §5, §6

[3] = system: pseudomonas aeruginosa strain ATCC 15442; conditions: 15 seconds (ethanol trials) or 1 minute to 30 minutes
Procedure: as §1, §2, §3, §4, §5, §6

SMILES	disinfection effectiveness [1]	log10 reduction ([2]; 30 minute time period)	disinfection effectiveness [3]	log10 reduction ([2]; 1 minute contact)	disinfection ([2]; after 30 minutes of contact time)	disinfection effectiveness ([2]; all time periods up to 30 minutes)
O=C(O)CC(O)(CC(=O)O)C(=O)O [citric acid]	Neither citric acid nor copper:citric acid was effective	1.0 log10	no significant reduction	–	–	–
CCO [20% ethanol, ethanol]	No significant reduction	–	no significant reduction	~1.0 log10	Near complete disinfection	slow, but complete disinfection
